# Results as given in patent publication US20070294785A1, “METHODS FOR […] DIVERSITY BY PERMUTATIONAL MUTAGENESIS” (Athenix Corporation, priority 2006, published 2007).
# System: BL21*DE3 competent E. coli cells
# Assay: Screening for glyphosate resistance on plates
# Type: cell-based
# Conditions: M63+ agar plates, 50 mM glyphosate, 0.05 mM IPTG, 50 ug/ml kanamycin, 36 hours at 37° C.
# Protocol: Library ligations were transformed into BL21*DE3 competent E. coli cells (Invitrogen). The transformations were performed according to the manufacturer's instructions with the following modifications. After incubation for 1 hour at 37° C. in SOC medium, the cells were sedimented by centrifugation (5 minutes, 1000×g, 4° C.). The cells were washed with 1 ml M63+, centrifuged again, and the supernatant decanted. The cells were washed a second time with 1 ml M63+ and resuspended in 200 ul M63+.
# For selection of mutant GRG1 enzymes conferring glyphosate resistance to E. coli, the cells were plated onto M63+ agar medium plates containing 50 mM glyphosate, 0.05 mM IPTG (isopropyl-beta-D-thiogalactopyranoside), and 50 ug/ml kanamycin. M63+ medium contains 100 mM KH2PO4, 15 mM (NH4)2SO4, 50 μM CaCl2, 1 μM FeSO4, 50 μM MgCl2, 55 mM glucose, 25 mg/liter L-proline, 10 mg/liter thiamine HCl, sufficient NaOH to adjust the pH to 7.0, and 15 g/liter agar. The plates were incubated for 36 hours at 37° C.
row,Substance,glyphosate resistance (growth on glyphosate plates)
1,L2-3 (PFIDCDESGLSIRMFTPIVALSK; Clone L2-3),glyphosate resistant
2,L2-4 (PFIKCRESGLSMRMFAPMVALSK; Clone L2-4),glyphosate resistant
3,L2-6 (PFIDCGESGLSFRMFVPIVALSK; Clone L2-6),glyphosate resistant
4,L2-7 (PFIECGESGLSIRLFTPLVALSK; Clone L2-7),glyphosate resistant
5,L2-8 (PFIDCSESGLSFRMFAPLVALSK; Clone L2-8),glyphosate resistant
6,L2-9 (PFINCGESGLSFRMFIPMVALSK; Clone L2-9),glyphosate resistant
7,L2-A (PFINCDESGLSFRMFTPIVALSK; Clone L2-A),glyphosate resistant
